Laboratory results: the supplement of paper PMC10307832

Assays:
Assay in all cases: relative viability (nuclei count vs DMSO), 5 days (fraction); higher = more cells survive
[1] = compound: CS(=O)(=O)N1CCN(Cc2cc3nc(-c4cccc5[nH]ncc45)nc(N4CCOCC4)c3s2)CC1 [Pictilisib] + Cc1nc(Nc2ncc(C(=O)Nc3c(C)cccc3Cl)s2)cc(N2CCN(CCO)CC2)n1 [Dasatinib] (partner 0.075 µM)
How it was run: (§1)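 Five library-drug doses in √10 steps were combined with a fixed anchor-drug dose, or a single drug was given alone, by pin tool to lung cancer cell lines in 1536-well plates the day after seeding. Nuclei were stained and counted after 5 days. Relative viability is the nuclei count in treated wells over that in vehicle wells, taken as the median of duplicate plates.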

[2] = compound: CS(=O)(=O)N1CCN(Cc2cc3nc(-c4cccc5[nH]ncc45)nc(N4CCOCC4)c3s2)CC1 [Pictilisib] + Cc1nc(NC(=O)N2CCC[C@H]2C(N)=O)sc1-c1ccnc(C(C)(C)C(F)(F)F)c1 [Alpelisib] (partner 2 µM)
How it was run: as §1

[3] = compound: CS(=O)(=O)N1CCN(Cc2cc3nc(-c4cccc5[nH]ncc45)nc(N4CCOCC4)c3s2)CC1 [Pictilisib] + Cc1cc(Nc2cc(N3CCN(C)CC3)nc(Sc3ccc(NC(=O)C4CC4)cc3)n2)n[nH]1 [Tozasertib] (partner 0.1 µM)
How it was run: as §1

[4] = compound: CS(=O)(=O)N1CCN(Cc2cc3nc(-c4cccc5[nH]ncc45)nc(N4CCOCC4)c3s2)CC1 [Pictilisib] + C[C@]1(O)C[C@@H](c2nc(-c3ccc4ccc(-c5ccccc5)nc4c3)c3c(N)nccn32)C1 [Linsitinib] (partner 1 µM)
How it was run: as §1

[5] = compound: CS(=O)(=O)N1CCN(Cc2cc3nc(-c4cccc5[nH]ncc45)nc(N4CCOCC4)c3s2)CC1 [Pictilisib] + CS(=O)(=O)CCNCc1ccc(-c2ccc3ncnc(Nc4ccc(OCc5cccc(F)c5)c(Cl)c4)c3c2)o1 [Lapatinib] (partner 2 µM)
How it was run: as §1

| Cell Line | relative viability ([1]; first compound 0.02 µM) | relative viability ([1]; first compound 0.06325 µM) | relative viability ([1]; first compound 0.6325 µM) | relative viability ([1]; first compound 2 µM) | relative viability ([2]; first compound 0.02 µM) | relative viability ([2]; first compound 0.06325 µM) | relative viability ([2]; first compound 0.6325 µM) | relative viability ([2]; first compound 2 µM) | relative viability ([3]; first compound 0.02 µM) | relative viability ([3]; first compound 0.06325 µM) | relative viability ([3]; first compound 0.6325 µM) | relative viability ([3]; first compound 2 µM) | relative viability ([4]; first compound 0.02 µM) | relative viability ([4]; first compound 0.06325 µM) | relative viability ([4]; first compound 0.6325 µM) | relative viability ([4]; first compound 2 µM) | relative viability ([5]; first compound 0.02 µM) | relative viability ([5]; first compound 0.06325 µM) | relative viability ([5]; first compound 0.6325 µM) | relative viability ([5]; first compound 2 µM) |
| --- | --- | --- | --- | --- | --- | --- | --- | --- | --- | --- | --- | --- | --- | --- | --- | --- | --- | --- | --- | --- |
| NCI-H441 | 0.639 | 0.528 | 0.352 | 0.256 | 0.735 | 0.833 | 0.698 | 0.541 | 0.654 | 0.542 | 0.527 | 0.289 | 0.58 | 0.581 | 0.414 | 0.325 |  |  |  |  |
| NCI-H520 | 0.176 | 0.135 | 0.146 | 0.114 | 0.996 | 0.815 | 0.724 | 0.267 | 0.413 | 0.412 | 0.234 | 0.232 | 0.975 | 1.09 | 0.56 | 0.208 | 0.834 | 0.864 | 0.365 | 0.164 |
| CAL-12T | 0.352 | 0.3 | 0.141 | 0.0923 | 1.32 | 1.12 | 1.19 | 0.883 | 0.296 | 0.314 | 0.277 | 0.17 | 0.986 | 0.732 | 0.807 | 0.424 | 0.6 | 0.638 | 0.653 | 0.468 |
| HCC-827 | 0.357 | 0.242 | 0.183 | 0.136 | 1.02 | 0.829 | 0.892 | 0.518 | 0.436 | 0.441 | 0.312 | 0.2 | 0.938 | 1.01 | 1.03 | 0.711 | 0.171 | 0.209 | 0.173 | 0.186 |
| LC-2-ad | 0.739 | 0.516 | 0.248 | 0.177 | 0.918 | 0.828 | 0.634 | 0.484 | 0.482 | 0.516 | 0.345 | 0.264 | 0.848 | 0.801 | 0.326 | 0.36 | 0.989 | 1.13 | 0.506 | 0.439 |
| NCI-H2170 | 0.544 | 0.754 | 0.522 | 0.343 | 0.834 | 0.879 | 0.813 | 0.583 | 0.875 | 0.823 | 0.61 | 0.391 |  |  |  |  | 0.285 | 0.306 | 0.226 | 0.245 |
| SW 1573 | 0.485 | 0.524 | 0.288 | 0.161 | 0.891 | 0.766 | 0.658 | 0.532 | 0.164 | 0.174 | 0.146 | 0.137 | 0.844 | 0.709 | 0.618 | 0.41 | 1.12 | 1.28 | 0.89 | 0.55 |
| SK-MES-1 | 0.304 | 0.308 | 0.128 | 0.117 | 0.856 | 0.804 | 0.634 | 0.45 | 1 | 0.982 | 0.822 | 0.649 | 1.02 | 1.01 | 0.836 | 0.456 | 0.468 | 0.41 | 0.389 | 0.27 |
| NCI-H1648 |  |  |  |  |  |  |  |  | 0.377 | 0.36 | 0.455 | 0.246 |  |  |  |  |  |  |  |  |
| NCI-H1793 | 0.361 | 0.39 | 0.351 | 0.243 | 0.729 | 0.516 | 0.566 | 0.307 | 0.288 | 0.29 | 0.189 | 0.097 | 0.829 | 0.819 | 0.554 | 0.336 | 0.693 | 0.963 | 0.61 | 0.336 |
| NCI-H1299 |  |  |  |  | 1.06 | 1.07 | 1.08 | 1.04 |  |  |  |  | 1.03 | 1.01 | 0.991 | 0.864 | 1.02 | 1.01 | 1 | 1.01 |
| LCLC-97TM1 | 0.8 | 0.919 | 0.781 | 0.602 | 0.268 | 0.353 | 0.265 | 0.176 | 0.251 | 0.211 | 0.0992 | 0.0885 | 0.17 | 0.161 | 0.189 | 0.17 | 0.672 | 0.93 | 0.768 | 0.446 |
| NCI-H1915 | 0.326 | 0.317 | 0.304 | 0.286 | 1.08 | 1.11 | 0.998 | 1.07 | 0.433 | 0.432 | 0.405 | 0.308 | 1.07 | 1.06 | 1.12 | 1.07 | 0.96 | 1.02 | 0.916 | 0.935 |
| NCI-H661 | 0.942 | 0.878 | 0.439 | 0.304 | 0.598 | 0.794 | 0.579 | 0.373 | 0.345 | 0.354 | 0.4 | 0.396 | 0.527 | 0.428 | 0.455 | 0.233 | 0.461 | 0.444 | 0.447 | 0.27 |
| NCI-H2405 | 0.231 | 0.217 | 0.189 | 0.168 | 0.957 | 0.785 | 0.732 | 0.424 | 0.764 | 0.725 | 0.663 | 0.348 | 1.05 | 0.96 | 0.7 | 0.5 | 1.2 | 1.05 | 0.801 | 0.505 |
| NCI-H2347 | 0.321 | 0.297 | 0.337 | 0.215 | 1.1 | 1.09 | 0.912 | 0.873 | 0.512 | 0.517 | 0.462 | 0.285 | 1.02 | 1.08 | 1.1 | 0.933 | 0.86 | 0.973 | 0.992 | 0.729 |
| NCI-H1651 | 0.35 | 0.387 | 0.358 | 0.201 | 0.969 | 0.906 | 0.765 | 0.516 | 0.637 | 0.567 | 0.544 | 0.286 | 0.922 | 0.953 | 0.817 | 0.616 | 0.919 | 0.721 | 0.568 | 0.424 |
